Results reported in US10499642B2, “Isoxazoline-substituted benzamides and analogues as insecticides” (SYNGENTA PARTICIPATIONS AG, priority 2015, dated 2019).
Read-outs that look alike come from different tables or passages of the source.

Key:
Assay type in all cases: in vivo
Spodoptera littoralis = Spodoptera littoralis (Egyptian cotton leaf worm) cotton leaf disc test; details: foliar, 72 h, read-out: control (at least one of mortality, anti-feedant effect, and growth inhibition)
How it was run: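 Cotton leaf discs on agar were sprayed with aqueous dilutions of 10′000 ppm DMSO stocks, dried and infested with five L1 larvae. Mortality, anti-feedant effect and growth inhibition were scored against untreated samples 3 days after infestation. Control = any of these higher than untreated.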

Myzus persicae = Myzus persicae (green peach aphid) sunflower leaf disc test; details: foliar, 144 h
Description: Myzus persicae (Green Peach Aphid):
Sunflower leaf discs were placed on agar in a 24-well microtiter plate and sprayed with test solutions at an application rate of 200 ppm. After drying, the leaf discs were infested with an aphid population of mixed ages. After an incubation period of 6 days after treatment, samples were checked for mortality. The following compounds gave at least 80% mortality of Myzus persicae: […]

Diabrotica Balteata = experiment: Diabrotica balteata (corn root worm) maize sprout test; details: 96 h, read-out: effect in at least one of the two categories (mortality or growth inhibition)
How it was run: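 Maize sprouts on agar were sprayed with aqueous test solutions made from 10′000 ppm DMSO stocks, dried, then infested with 6 to 10 L2 larvae per well. Mortality and growth inhibition versus untreated samples were assessed 4 days after infestation; application rate 200 ppm.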

Tetranychus urticae = Tetranychus urticae (two-spotted spider mite) bean leaf disc test; details: foliar, 192 h
Description: Tetranychus urticae (Two-Spotted Spider Mite):
Bean leaf discs on agar in 24-well microtiter plates were sprayed with aqueous test solutions prepared from 10′000 ppm DMSO stock solutions. After drying the leaf discs were infested with a mite population of mixed ages. The samples were assessed for mortality on mixed population (mobile stages) 8 days after infestation.

Thrips tabaci = Thrips tabaci (onion thrips) sunflower leaf disc test; details: foliar, 144 h
Description: Thrips tabaci (Onion Thrips):
Sunflower leaf discs were placed on agar in 24-well microtiter plates and sprayed with aqueous test solutions prepared from 10′000 ppm DMSO stock solutions. After drying the leaf discs were infested with a thrips population of mixed ages. The samples were assessed for mortality 6 days after infestation.

Plutella xylostella = Plutella xylostella (diamond back moth) artificial diet test; details: 120 h, read-out: effect in at least one of the two categories (mortality or growth inhibition)
How it was run: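 Artificial diet treated with aqueous compound solutions made from DMSO stocks, dried, then infested with L2 larvae (10 to 15 per well). Mortality and growth inhibition scored versus untreated controls 5 days after infestation. Application rate 200 ppm.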

CC1=NOC(N(C=O)C(=O)c2ccc(C3=NO[C@@](c4cc(Cl)c(Cl)c(Cl)c4)(C(F)(F)F)C3)cc2C)C1 (stereo partly drawn) [Compound A023, N-formyl-2-methyl-N-(3-methyl-4,5-dihydroisoxazol-5-yl)-4-[(5S)-5-(3,4,5-trichlorophenyl)-5-(trifluoromethyl)-4H-isoxazol-3-yl]benzamide]
≥ 80%: percent control (mortality, anti-feedant effect or growth inhibition) at 200 ppm (Spodoptera littoralis) | mortality at 200 ppm (Myzus persicae) | percent effect (mortality or growth inhibition) at 200 ppm (Diabrotica Balteata) | mortality at 200 ppm (Tetranychus urticae) | mortality at 200 ppm (Thrips tabaci) | percent effect (mortality or growth inhibition) at 200 ppm (Plutella xylostella)

CC1=NOC(N(C=O)C(=O)c2ccc(C3=NO[C@@](c4cc(Cl)c(Cl)c(Cl)c4)(C(F)(F)F)C3)cc2Cl)C1 (stereo partly drawn) [Compound A024, 2-chloro-N-formyl-N-(3-methyl-4,5-dihydroisoxazol-5-yl)-4-[(5S)-5-(3,4,5-trichlorophenyl)-5-(trifluoromethyl)-4H-isoxazol-3-yl]benzamide]
≥ 80%: percent control (mortality, anti-feedant effect or growth inhibition) at 200 ppm (Spodoptera littoralis) | mortality at 200 ppm (Myzus persicae) | percent effect (mortality or growth inhibition) at 200 ppm (Diabrotica Balteata) | mortality at 200 ppm (Tetranychus urticae) | mortality at 200 ppm (Thrips tabaci) | percent effect (mortality or growth inhibition) at 200 ppm (Plutella xylostella)

CC1=NOC(NC(=O)c2ccc(C3=NO[C@@](c4cc(Cl)c(Cl)c(Cl)c4)(C(F)(F)F)C3)cc2Cl)C1 (stereo partly drawn) [Compound A025, 2-chloro-N-(3-methyl-4,5-dihydroisoxazol-5-yl)-4-[(5S)-5-(3,4,5-trichlorophenyl)-5-(trifluoromethyl)-4H-isoxazol-3-yl]benzamide]
≥ 80%: percent control (mortality, anti-feedant effect or growth inhibition) at 200 ppm (Spodoptera littoralis) | mortality at 200 ppm (Myzus persicae) | percent effect (mortality or growth inhibition) at 200 ppm (Diabrotica Balteata) | mortality at 200 ppm (Tetranychus urticae) | mortality at 200 ppm (Thrips tabaci) | percent effect (mortality or growth inhibition) at 200 ppm (Plutella xylostella)

CCC1=NOC(NC(=O)c2ccc(C3=NO[C@@](c4cc(Cl)c(F)c(Cl)c4)(C(F)(F)F)C3)cc2C)C1 (stereo partly drawn) [Compound A026, 4-[(5S)-5-(3,5-dichloro-4-fluoro-phenyl)-5-(trifluoromethyl)-4H-isoxazol-3-yl]-N-(3-ethyl-4,5-dihydroisoxazol-5-yl)-2-methyl-benzamide]
≥ 80%: percent control (mortality, anti-feedant effect or growth inhibition) at 200 ppm (Spodoptera littoralis) | mortality at 200 ppm (Myzus persicae) | percent effect (mortality or growth inhibition) at 200 ppm (Diabrotica Balteata) | mortality at 200 ppm (Tetranychus urticae) | mortality at 200 ppm (Thrips tabaci) | percent effect (mortality or growth inhibition) at 200 ppm (Plutella xylostella)

CC1=NOC(NC(=O)c2ccc(C3=NO[C@@](c4cc(Cl)c(Cl)c(Cl)c4)(C(F)(F)F)C3)cc2C)C1 (stereo partly drawn) [Compound A027, 2-methyl-N-(3-methyl-4,5-dihydroisoxazol-5-yl)-4-[(5S)-5-(3,4,5-trichlorophenyl)-5-(trifluoromethyl)-4H-isoxazol-3-yl]benzamide]
≥ 80%: percent control (mortality, anti-feedant effect or growth inhibition) at 200 ppm (Spodoptera littoralis) | mortality at 200 ppm (Myzus persicae) | percent effect (mortality or growth inhibition) at 200 ppm (Diabrotica Balteata) | mortality at 200 ppm (Tetranychus urticae) | mortality at 200 ppm (Thrips tabaci) | percent effect (mortality or growth inhibition) at 200 ppm (Plutella xylostella)

CC1=NOC(NC(=O)c2ccc(C3=NO[C@@](c4cc(Cl)cc(C(F)(F)F)c4)(C(F)(F)F)C3)cc2C)C1 (stereo partly drawn) [Compound A028, 4-[(5S)-5-[3-chloro-5-(trifluoromethyl)phenyl]-5-(trifluoromethyl)-4H-isoxazol-3-yl]-2-methyl-N-(3-methyl-4,5-dihydroisoxazol-5-yl)benzamide]
≥ 80%: percent control (mortality, anti-feedant effect or growth inhibition) at 200 ppm (Spodoptera littoralis) | mortality at 200 ppm (Myzus persicae) | percent effect (mortality or growth inhibition) at 200 ppm (Diabrotica Balteata) | mortality at 200 ppm (Tetranychus urticae) | mortality at 200 ppm (Thrips tabaci) | percent effect (mortality or growth inhibition) at 200 ppm (Plutella xylostella)

CC1=NOC(NC(=O)c2ccc(C3=NO[C@@](c4cc(Br)cc(C(F)(F)F)c4)(C(F)(F)F)C3)cc2C)C1 (stereo partly drawn) [Compound A029, 4-[(5S)-5-[3-bromo-5-(trifluoromethyl)phenyl]-5-(trifluoromethyl)-4H-isoxazol-3-yl]-2-methyl-N-(3-methyl-4,5-dihydroisoxazol-5-yl)benzamide]
≥ 80%: percent control (mortality, anti-feedant effect or growth inhibition) at 200 ppm (Spodoptera littoralis; application rate 200 ppm, cotton leaf discs, L1 larvae, 3 days after infestation) | mortality at 200 ppm (Myzus persicae; application rate 200 ppm, sunflower leaf discs, population of mixed ages, 6 days after treatment, read-out: mortality) | percent effect (mortality or growth inhibition) at 200 ppm (Diabrotica Balteata; application rate 200 ppm, maize sprouts, L2 larvae, 4 days after infestation) | mortality at 200 ppm (Tetranychus urticae; application rate 200 ppm, bean leaf discs, mixed population (mobile stages), 8 days after infestation, read-out: mortality) | mortality at 200 ppm (Thrips tabaci; application rate 200 ppm, sunflower leaf discs, population of mixed ages, 6 days after infestation, read-out: mortality) | percent effect (mortality or growth inhibition) at 200 ppm (Plutella xylostella; application rate 200 ppm, artificial diet, L2 larvae, 5 days after infestation)

COC1=NOC(NC(=O)c2ccc(C3=NO[C@@](c4cc(Cl)c(F)c(Cl)c4)(C(F)(F)F)C3)cc2C)C1 (stereo partly drawn) [Compound A030, 4-[(5S)-5-(3,5-dichloro-4-fluoro-phenyl)-5-(trifluoromethyl)-4H-isoxazol-3-yl]-N-(3-methoxy-4,5-dihydroisoxazol-5-yl)-2-methyl-benzamide]
≥ 80%: percent control (mortality, anti-feedant effect or growth inhibition) at 200 ppm (Spodoptera littoralis) | mortality at 200 ppm (Myzus persicae) | percent effect (mortality or growth inhibition) at 200 ppm (Diabrotica Balteata) | mortality at 200 ppm (Tetranychus urticae) | mortality at 200 ppm (Thrips tabaci) | percent effect (mortality or growth inhibition) at 200 ppm (Plutella xylostella)

Cc1cc(C2=NO[C@@](c3cc(Cl)c(F)c(Cl)c3)(C(F)(F)F)C2)ccc1C(=O)N(C=O)C1CC(C2CC2)=NO1 (stereo partly drawn) [Compound A031, N-(3-cyclopropyl-4,5-dihydroisoxazol-5-yl)-4-[(5S)-5-(3,5-dichloro-4-fluoro-phenyl)-5-(trifluoromethyl)-4H-isoxazol-3-yl]-N-formyl-2-methyl-benzamide]
≥ 80%: percent control (mortality, anti-feedant effect or growth inhibition) at 200 ppm (Spodoptera littoralis) | mortality at 200 ppm (Myzus persicae) | percent effect (mortality or growth inhibition) at 200 ppm (Diabrotica Balteata) | mortality at 200 ppm (Tetranychus urticae) | mortality at 200 ppm (Thrips tabaci) | percent effect (mortality or growth inhibition) at 200 ppm (Plutella xylostella)

Cc1cc(C2=NO[C@@](c3cc(Cl)c(F)c(Cl)c3)(C(F)(F)F)C2)ccc1C(=O)NC1CC(C2CC2)=NO1 (stereo partly drawn) [Compound A032, N-(3-cyclopropyl-4,5-dihydroisoxazol-5-yl)-4-[(5S)-5-(3,5-dichloro-4-fluoro-phenyl)-5-(trifluoromethyl)-4H-isoxazol-3-yl]-2-methyl-benzamide]
≥ 80%: percent control (mortality, anti-feedant effect or growth inhibition) at 200 ppm (Spodoptera littoralis) | mortality at 200 ppm (Myzus persicae) | percent effect (mortality or growth inhibition) at 200 ppm (Diabrotica Balteata) | mortality at 200 ppm (Tetranychus urticae) | mortality at 200 ppm (Thrips tabaci) | percent effect (mortality or growth inhibition) at 200 ppm (Plutella xylostella)

CC1=NOC(N(C=O)C(=O)c2ccc(C3=NO[C@@](c4cc(Cl)c(F)c(Cl)c4)(C(F)(F)F)C3)cc2Cl)C1 (stereo partly drawn) [Compound A033, 2-chloro-4-[(5S)-5-(3,5-dichloro-4-fluoro-phenyl)-5-(trifluoromethyl)-4H-isoxazol-3-yl]-N-formyl-N-(3-methyl-4,5-dihydroisoxazol-5-yl)benzamide]
≥ 80%: percent control (mortality, anti-feedant effect or growth inhibition) at 200 ppm (Spodoptera littoralis) | mortality at 200 ppm (Myzus persicae) | percent effect (mortality or growth inhibition) at 200 ppm (Diabrotica Balteata) | mortality at 200 ppm (Tetranychus urticae) | mortality at 200 ppm (Thrips tabaci) | percent effect (mortality or growth inhibition) at 200 ppm (Plutella xylostella)

CC1=NOC(N(C=O)C(=O)c2ccc(C3=NO[C@@](c4cc(Cl)c(F)c(Cl)c4)(C(F)(F)F)C3)cc2Br)C1 (stereo partly drawn) [Compound A034, 2-bromo-4-[(5S)-5-(3,5-dichloro-4-fluoro-phenyl)-5-(trifluoromethyl)-4H-isoxazol-3-yl]-N-formyl-N-(3-methyl-4,5-dihydroisoxazol-5-yl)benzamide]
≥ 80%: percent control (mortality, anti-feedant effect or growth inhibition) at 200 ppm (Spodoptera littoralis) | mortality at 200 ppm (Myzus persicae) | percent effect (mortality or growth inhibition) at 200 ppm (Diabrotica Balteata) | mortality at 200 ppm (Tetranychus urticae) | mortality at 200 ppm (Thrips tabaci) | percent effect (mortality or growth inhibition) at 200 ppm (Plutella xylostella)

CC1=NOC(N(C=O)C(=O)c2ccc(C3=NO[C@@](c4cc(Cl)c(Cl)c(Cl)c4)(C(F)(F)F)C3)cc2Br)C1 (stereo partly drawn) [Compound A035, 2-bromo-N-formyl-N-(3-methyl-4,5-dihydroisoxazol-5-yl)-4-[(5S)-5-(3,4,5-trichlorophenyl)-5-(trifluoromethyl)-4H-isoxazol-3-yl]benzamide]
≥ 80%: percent control (mortality, anti-feedant effect or growth inhibition) at 200 ppm (Spodoptera littoralis) | mortality at 200 ppm (Myzus persicae) | percent effect (mortality or growth inhibition) at 200 ppm (Diabrotica Balteata) | mortality at 200 ppm (Tetranychus urticae) | mortality at 200 ppm (Thrips tabaci) | percent effect (mortality or growth inhibition) at 200 ppm (Plutella xylostella)
